In EP0051773A1, “Penicillins, their salts, process for their preparation and pharmaceutical compositions containing them” (Dr. Karl Thomae GmbH, priority 1980, dated 1982):
≈ marks a conversion by molar mass, not a printed value.

Legend:
[1] = test system: Escherichia coli ATCC 11 775; experiment: serial dilution test in microtiter system (bacteriostasis, MIC); format: cell-based; settings: ATCC11, liquid medium, 18 to 20 h at 37°C, read-out: MHK-Werte E.coli ATCC 11 755
Procedure: (§1) Für die Untersuchungen wurde die Methode des Reihenverdünnungstestes im Mikrotitersystem angewandt. Die Prüfung der Substanzen auf Bakteriostase erfolgte in flüssigem Medium. Es wurde die Bakteriostasewirkung bei folgenden Konzentrationen untersucht.
(§2) Es wurde ein Nährboden folgender Zusammensetzung benutzt: 10 g Pepton, 8 g Fleischextrakt-Oxoid, 3 g Natriumschlorid, 2 g sek. Natriumphosphat werden mit dest. Wasser auf 1000 ml aufgefüllt (pH 7,2-7,4). Lediglich bei der Testung gegen Streptokokken wurde 1% Glucose hinzugefügt. Das Alter der Primärkulturen betrug etwa 20 Stunden. Die Einstellung der Keimsuspension erfolgte am Photometer (nach "Eppendorf") (Reagenzglas-Durchmesser 14 mm, Filter 546 nm) anhand der Trübung einer Bariumsulfat-Vergleichssuspension, die durch eine Bariumsulfat-Aufschwemmung erzeugt wurde, welche durch die Zugabe von 3,0 ml 1%ige Bariumchloridlösung in 97 ml 1%ige Schwefelsäure entstand. Nach der Einstellung wurden Streptococcus Aronson im Verhältnis 1:15 und die übrigen Testkeime im Verhältnis 1:1500 mit einer Kochsalzlösung weiter verdünnt.
(§3) 16 mg der jeweiligen Substanz wurden in 10 ml-Meßkolben eingewogen und mit dem Lösungsmittel bis zur Marke aufgefüllt. Die weitere Verdünnungsreihe wurde mit destilliertem Wasser oder dem jeweiligen Lösungsmittel hergestellt.
(§4) Die Vertiefungen der Mikrotiterplatten wurden mit 0,2 ml Nährmedium, 0,01 ml der entsprechenden Substanzverdünnung und mit einem Tropfen Keimsuspension (0,01 ml) beschickt und 18 bis 20 Stunden bei 37°C bebrütet. Eine Lösungsmittelkontrolle wurde stets mitgeführt.
(§5) Die Ablesung wurde makroskopisch vorgenommen, wobei die jeweilige Grenkonzentration (= niedrigste noch bakteriostatisch wirksame Konzentration) ermittelt wurde.
(§6) Als Testorganismen wurden benützt: - Staphylococcus aureus SG 511, Escherichia coli ATCC 11 775, Pseudomonas aeruginosa Hamburgensis und Walter, Serratia marcescens ATCC 13 880, Klebsiella pneumoniae ATCC 10 031 und BC 6, Proteus mirabilis Hamburgensis, Proteus rettgeri BC 7 und Enterobacter cloacae ATCC 13 047.
(§7) In der folgenden Tabelle 2 sind die ermittelten minimalen Hemmkonzentrationen (MIC) für typische Vertreter der erfindungsgemäßen Verbindungen aufgeführt, wobei sich die Ziffern auf die Penicilline der Tabelle 1 Seite 18 beziehen.

[2] = test system: Pseudomonas aeruginosa Walter; experiment: as above; format: cell-based; settings: liquid medium, 18 to 20 h at 37°C, read-out: MHK-Werte Pseud. aerug. Walter
Procedure: as §1, §2, §3, §4, §5, §6, §7

[3] = test system: Pseudomonas aeruginosa Hamburgensis; experiment: as above; format: cell-based; settings: liquid medium, 18 to 20 h at 37°C, read-out: MHK-Werte Pseud. aerug. Hbg.
Procedure: as §1, §2, §3, §4, §5, §6, §7

[4] = test system: Enterobacter cloacae ATCC 13 047; experiment: as above; format: cell-based; settings: ATCC13, liquid medium, 18 to 20 h at 37°C, read-out: MHK-Werte Eb. cloacae 13 047
Procedure: as §1, §2, §3, §4, §5, §6, §7

[5] = test system: Klebsiella pneumoniae BC 6; experiment: as above; format: cell-based; settings: BC6, liquid medium, 18 to 20 h at 37°C, read-out: MHK-Werte Kl. pneum. BC 6
Procedure: as §1, §2, §3, §4, §5, §6, §7

[6] = test system: Klebsiella pneumoniae ATCC 10 031; experiment: as above; format: cell-based; settings: ATCC10, liquid medium, 18 to 20 h at 37°C, read-out: MHK-Werte Kl. pneum. ATCC 10 031
Procedure: as §1, §2, §3, §4, §5, §6, §7

Proteus rettgeri BC 7 = experiment: as above; format: cell-based; settings: Providencia rettgeri, BC7; liquid medium, 18 to 20 h at 37°C; read-out: MHK-Werte Prot. rettg. BC 7
Procedure: as §1, §2, §3, §4, §5, §6, §7

[7] = test system: Staphylococcus aureus SG 511; experiment: as above; format: cell-based; settings: SG511, liquid medium, 18 to 20 h at 37°C, read-out: MHK-Werte Staph. aureus SG 511
Procedure: as §1, §2, §3, §4, §5, §6, §7

[8] = test system: Proteus mirabilis Hamburgensis; experiment: as above; format: cell-based; settings: liquid medium, 18 to 20 h at 37°C, read-out: MHK-Werte Prot. mir. Hbg.
Procedure: as §1, §2, §3, §4, §5, §6, §7

[9] = test system: Serratia marcescens ATCC 13 880; experiment: as above; format: cell-based; settings: ATCC13, liquid medium, 18 to 20 h at 37°C, read-out: MHK-Werte Serr. marcesc. ATCC 13 880
Procedure: as §1, §2, §3, §4, §5, §6, §7

[10] = test system: Pseudomonas aeruginosa Walter; experiment: experimental intraperitoneal infection in mice, ED50 (survival); format: in vivo, Mäuse; settings: sc, 168 h, female NMRI mice, i.p. infection, s.c. application, treated three times, 7 days observation, read-out: ED50 Pseud. aerug. Walter
Procedure: (§8) Eine Reihe der erfindungsgemäßen Verbindungen wurde in vivo bei experimentellen Infektionen an Mäusen untersucht. Man verwendete als pathogene Bakterien E.coli ATCC 11 775 und Pseudomonas aeruginosa Walter. Es wurde eine intraperitoneale Infektion mit 0,2 ml einer 5%igen Mucinsuspension der Bakterien gesetzt. Dies entspricht etwa 2x10^6 Keime E.coli bzw. 8x10^5 Keime Pseudomonas/Maus. Weibliche Mäuse vom Stamm NMRI wurden in Gruppen von jeweils 10 Tieren aufgeteilt, zwei Gruppen blieben unbehandelt, die restlichen Gruppen wurden mit verschiedenen Dosen der jeweiligen erfindungsgemäßen Penicilline zur Bestimmung der ED50 (Dosis, bei der 50 % der Tiere überleben) behandelt. Bei der E.coli-Infektion wurde einmal therapiert. Bei der Pseudomonas-Infektion wurde dreimal behandelt.
(§9) Der Beobachtungszeitraum betrug in beiden Fällen 7 Tage. Die Ergebnisse dieser Teste mit repräsentativen Vertretern der erfindungsgemäßen Penicilline sind in der Tabelle 3 dargestellt.

E.coli ATCC 11 775 = experiment: as above; format: in vivo, Mäuse; settings: Escherichia coli, ATCC 11 / ATCC 1175, sc, 168 h; female NMRI mice, i.p. infection, s.c. application, treated once, 7 days observation
Procedure: as §8, §9

MIC [1] [mg/L] | MIC [2] [mg/L] | MIC [3] [mg/L] | MIC [4] [mg/L] | MIC [5] [mg/L] | MIC [6] [mg/L] | MIC (Proteus rettgeri BC 7) [mg/L] | MIC [7] [mg/L] | MIC [8] [mg/L] | MIC [9] [mg/L] | SMILES | ED50 [10] [mg/kg] | ED50 (E.coli ATCC 11 775) [mg/kg]
16 (≈ 34.7 µM) | 8 (≈ 17.3 µM) | 8 (≈ 17.3 µM) | 32 (≈ 69.3 µM) | 32 (≈ 69.3 µM) | 32 (≈ 69.3 µM) | 2 (≈ 4.33 µM) | 0.5 (≈ 1.08 µM) | 0.5 (≈ 1.08 µM) | 2 (≈ 4.33 µM) | CC1(C)S[C@@H]2[C@H](NC(=O)[C@H](NC(=O)N3CCNC3=O)c3ccccc3)C(=O)N2[C@H]1C(=O)O [A, 6-{D-α'-[(2-Oxo-imidazolidin-1-yl)-carbonylamino]-4-phenylacetamido}-penicillansäure-Natriumsalz, reference compound] | 225 | > 100
2 (≈ 3.86 µM) | 8 (≈ 15.5 µM) | 4 (≈ 7.73 µM) | 4 (≈ 7.73 µM) | 8 (≈ 15.5 µM) | 4 (≈ 7.73 µM) | 0.5 (≈ 0.966 µM) | 0.25 (≈ 0.483 µM) | 0.25 (≈ 0.483 µM) | 0.5 (≈ 0.966 µM) | CCN1CCN(C(=O)N[C@@H](C(=O)N[C@@H]2C(=O)N3[C@@H]2SC(C)(C)[C@@H]3C(=O)O)c2ccccc2)C(=O)C1=O [D, Piperacillin, reference compound] | 186 | 89
0.12 (≈ 0.183 µM) | 1 (≈ 1.52 µM) | 1 (≈ 1.52 µM) | 0.5 (≈ 0.761 µM) | 0.5 (≈ 0.761 µM) | 0.5 (≈ 0.761 µM) | 0.25 (≈ 0.381 µM) | 0.12 (≈ 0.183 µM) | < 0.03 | 0.12 (≈ 0.183 µM) | CC1(C)S[C@@H]2[C@H](NC(=O)[C@H](NC(=O)Nc3cnc(Nc4ccc(S(N)(=O)=O)cc4)nc3O)c3ccccc3)C(=O)N2[C@H]1C(=O)O [Verbindung 1, D-α-[3-(2-p-Aminosulfonylanilino-4-hydroxy-5-pyrimidinyl)-ureido]-benzylpenicillin-Natrium] | 8.2 | 3.9
1 (≈ 1.45 µM) | 4 (≈ 5.81 µM) | 4 (≈ 5.81 µM) | 4 (≈ 5.81 µM) | 8 (≈ 11.6 µM) | 8 (≈ 11.6 µM) | 1 (≈ 1.45 µM) | 0.5 (≈ 0.726 µM) | 0.5 (≈ 0.726 µM) | 4 (≈ 5.81 µM) | CC1(C)S[C@@H]2[C@H](NC(=O)[C@H](NC(=O)Nc3cnc(Nc4ccc(S(N)(=O)=O)cc4)nc3O)c3ccc(O)c(O)c3)C(=O)N2[C@H]1C(=O)O [Verbindung 3] | 10.4 | 3.7
0.25 (≈ 0.354 µM) | 1 (≈ 1.41 µM) | 2 (≈ 2.83 µM) | 1 (≈ 1.41 µM) | 2 (≈ 2.83 µM) | 2 (≈ 2.83 µM) | 0.5 (≈ 0.707 µM) | 0.25 (≈ 0.354 µM) | 0.25 (≈ 0.354 µM) | 0.25 (≈ 0.354 µM) | CC1(C)S[C@@H]2[C@H](NC(=O)[C@H](NC(=O)Nc3cnc(Nc4ccc(S(N)(=O)=O)cc4)nc3O)c3ccc(O)c(Cl)c3)C(=O)N2[C@H]1C(=O)O [Verbindung 4] |  | 6.1
0.12 (≈ 0.175 µM) | 1 (≈ 1.46 µM) | 1 (≈ 1.46 µM) | 0.5 (≈ 0.728 µM) | 1 (≈ 1.46 µM) | 1 (≈ 1.46 µM) | 0.5 (≈ 0.728 µM) | 0.25 (≈ 0.364 µM) | 0.06 (≈ 0.0874 µM) | 0.12 (≈ 0.175 µM) | CNS(=O)(=O)c1ccc(Nc2ncc(NC(=O)N[C@@H](C(=O)N[C@@H]3C(=O)N4[C@@H]3SC(C)(C)[C@@H]4C(=O)O)c3ccc(O)cc3)c(O)n2)cc1 [Verbindung 7, D-α-[3-(4-Hydroxy-2-p-methylaminosulfonylanilino-5-pyrimidinyl)-ureido]-p-hydroxy-benzylpenicillin-Natrium] | 6.6 | 3.4
 |  |  |  |  |  |  |  |  |  | CN(C)S(=O)(=O)c1ccc(Nc2ncc(NC(=O)N[C@@H](C(=O)N[C@@H]3C(=O)N4[C@@H]3SC(C)(C)[C@@H]4C(=O)O)c3ccccc3)c(O)n2)cc1 [Verbindung 14] | 8.5 | 4.2
